This note sets out measurements from ChEMBL document CHEMBL1147808, “Protein tyrosine phosphatase 1B inhibitory activity of triterpenes isolated from Astilbe koreana” (Bioorg Med Chem Lett, 2006).

Each structure is given as a SMILES string.

The target in the experiment is T1, Tyrosine-protein phosphatase non-receptor type 1 (Homo sapiens, UniProt P18031).
T1 sequence (P18031 whole entry): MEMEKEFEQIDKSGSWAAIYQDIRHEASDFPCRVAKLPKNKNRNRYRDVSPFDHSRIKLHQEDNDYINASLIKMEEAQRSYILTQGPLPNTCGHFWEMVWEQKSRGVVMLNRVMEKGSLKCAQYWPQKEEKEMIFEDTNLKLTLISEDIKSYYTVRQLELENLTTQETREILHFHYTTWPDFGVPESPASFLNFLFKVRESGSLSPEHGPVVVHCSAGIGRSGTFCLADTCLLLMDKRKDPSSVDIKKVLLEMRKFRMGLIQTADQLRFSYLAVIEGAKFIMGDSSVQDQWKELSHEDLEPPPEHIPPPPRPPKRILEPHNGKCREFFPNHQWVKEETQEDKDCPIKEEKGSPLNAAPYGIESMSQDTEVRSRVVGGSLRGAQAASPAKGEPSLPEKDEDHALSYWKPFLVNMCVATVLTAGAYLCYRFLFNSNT
Nature of the experiment: Inhibition of human recombinant PTP1B.
With `CC1(C)CC[C@]2(C)CC[C@]3(C(=O)O)C(=CC[C@@H]4[C@@]5(C)CCC(=O)C(C)(C)[C@@H]5CC[C@]43C)[C@@H]2C1`, the IC50 worked out at 6.8 µM.

With `COC(=O)[C@@]12CC[C@@]3(C)CCC(C)(C)C[C@H]3C1=CC[C@@H]1[C@@]3(C)CC[C@H](O)C(C)(C)C3CC[C@]12C` (some centres undefined), the IC50 stood at 16 µM.

Take `CC1(C)CC[C@]2(C)CC[C@]3(C(=O)O)C(=CC[C@@H]4[C@@]5(C)CC[C@@H](O)[C@](C)(CO)C5CC[C@]43C)[C@@H]2C1` (some centres undefined): the IC50 came out at 11.7 µM.

As to `CC(=O)O[C@H]1CC[C@@]2(C)C(CC[C@]3(C)[C@@H]2CC=C2[C@@H]4CC(C)(C)CC[C@]4(C)CC[C@]23C(=O)O)C1(C)C` (some centres undefined), the IC50 was 8.5 µM.

For the molecule `CC1(C)CC[C@]2(C)CC[C@]3(C(=O)O)C(=CC[C@@H]4[C@@]5(C)CC[C@H](O)C(C)(C)C5CC[C@]43C)[C@@H]2C1` (some centres undefined), the concentration for half-maximal inhibition (IC50) is 5.2 µM.

For the molecule `CC1(C)CC[C@]2(C)CC[C@]3(C(=O)O)C(=CC[C@@H]4[C@@]5(C)CC[C@H](O)C(C)(C)C5[C@H](O)C[C@]43C)[C@@H]2C1` (some centres undefined), the half-maximal inhibitory concentration (IC50) was 12.8 µM.

Regarding `C[C@H]1[C@H](C)CC[C@]2(C)CC[C@]3(C(=O)O)C(=CC[C@@H]4[C@@]5(C)CC[C@H](O)C(C)(C)C5CC[C@]43C)[C@H]12` (some centres undefined), the IC50 was 4.9 µM.

Regarding `COC(=O)[C@@]12CCC3C(=CC[C@H]4[C@@]3(C)CCC3C(C)(C)[C@@H](O)CC[C@@]34C)[C@@H]1CC(C)(C)CC2` (some centres undefined), the IC50 was 14.2 µM.

On to `CC1(C)[C@@H](O[C@H]2O[C@H](C(=O)O)[C@@H](O)[C@H](O)[C@H]2O[C@@H]2O[C@H](C(=O)O)[C@@H](O)[C@H](O)[C@H]2O)CC[C@]2(C)[C@H]3C(=O)C=C4[C@@H]5C[C@@](C)(C(=O)O)CC[C@]5(C)CC[C@@]4(C)[C@]3(C)CC[C@@H]12` [GLYCYRRHIZIN], for which the concentration for half-maximal inhibition (IC50) is more than 100 µM.

Usually IC50 stands for the concentration that inhibits the measured activity by half.
